Patent US20070054887A1, “Methods for treating bladder dysfunction” (BioXell S.p.A, priority 2003, published 2007)

Key:
human bladder cells = experiment: inhibition of basal human bladder cell growth; format: cell-based; conditions: Homo sapiens
[1] = maximum tolerated dose (MTD) in rats; format: in vivo; conditions: rat, in vivo, read-out: MTD
Text: The maximum tolerated dose (MTD) in rats is also listed for each compound.

hBC [2] = experiment: androgen-stimulated hBC growth, 48 h incubation; format: cell-based, human; conditions: DHT 10 nM, Compound A 1 nM, finasteride 1 nM, FIG. 5
Text: Results are expressed as percentage variation (mean±SEM) over their relative controls and derived from at least three different experiments obtained from three distinct hBC cell preparations. *P<0.05 (vs. control); °P<0.01 (vs. androgen-treated cells).

bcl-2 = experiment: Bcl-2 protein expression in hBC by immunocytochemistry; format: cell-based, human; conditions: Compound A 10 nM, alone and in the presence of KGF (10 ng/ml) or testosterone (10 nM); FIG. 6
Description: After incubation with the indicated stimuli, slides were washed twice with PBS pH 7.4 and fixed in 3.7% paraformaldehyde in PBS for 15 min at room temperature, followed by permeabilization in 3.7% paraformaldehyde in PBS, containing 0.1% Triton X-100 for 15 min at room temperature. Anti-Bcl-2 mAb (1:40) diluted in PBS containing 2% BSA was added to the slides and incubated overnight at 4° C. Slides were washed three times (5 min) in PBS and incubated 45 min at room temperature with 2% BSA-PBS, containing the secondary antibody (dilution 1:1000). After three washes in PBS, the slides were examined with a phase contrast microscope (Nikon mocrophot-FX microscopes; Nikon, Kogaku, Tokyo, Japan). Slides lacking the primary antibody or stained with the corresponding non-immune serum served as controls.

vimentin = vimentin gene and protein expression in serum-starved hBC; format: cell-based, human; conditions: 10 nM, at any time point tested; FIG. 13
Description: Vimentin was detected (mRNA and protein) as per the method for desmin described in Example 1B. Vimentin is a fibroblastic cell marker. Quantitative analysis using real-time RT-PCR of vimentin mRNA expression in serum-starved hBC treated with Compound A (10 nM) was examined at different time points (2-12 days). Results are derived from five different experiments from three distinct hBC preparations and are expressed as fold increase compared to time zero. Control, open columns; Compound A, grey columns.
Western blot detection of vimentin in hBC was performed as follows: Thirty ug of proteins were separated by 10% SDS-PAGE, transferred onto nitrocellulose membrane, and probed with anti-vimentin antibody (1:1000). A band of about 61 kDa was detected in each sample of hBC. […] Results are representative of three independent experiments performed using separate hBC preparations.
Immunocytochemical detection of vimentin in hBC was conducted as follows: Cells were seeded onto sterile glasses, treated with Compound A (10 nM) and processed at the indicated time points with an anti-vimentin antibody (1:1000). […] Quantification of three separate experiments from three distinct preparations of hBC is shown in FIG. 15 (control, open columns; Compound A, grey columns). […]

bladder strips = experiment: contractile properties of isolated bladder strips from BOO model rats; set-up: species or system Sprague-Dawley rats; conditions: in vitro test
Description: After completion of the cystometries, the rats were sacrified by carbon monoxide asphyxiation followed by exsanguination. The abdomen was accessed through a lower midline incision whereafter the symphysis was opened. The bladder was carefully dissected free, and immediately placed in chilled Krebs solution, and strip preparations were dissected.
The bladder and urethra were separated at the level of the bladder neck, and semicircular strips were prepared from the middle third of the detrusor (1×2×5 mm). All preparations were used immediately after removal.
The strips were transferred to 5 ml tissue baths containing Krebs solution. The Krebs solution was maintained at 37° C. and bubbled continuously with a mixture of 95% O2 and 5% CO2, resulting in a pH of 7.4. The strips were suspended between two L-shaped hooks by means of silk ligatures. One hook was connected to a movable unit allowing adjustment of passive tension, and the other to a Grass FT03C (Grass Instruments Co, MA, USA) force transducer. Isometric tension was recorded using a Grass polygraph (7D). After mounting, the strips were stretched to a passive tension of 4 mN (the same tension for all preparations) and allowed to equilibrate for 45-60 min before further experiments were performed.
Electrical field stimulation (EFS) was accomplished by means of two platinum electrodes placed on either side of the preparations, and was performed using a Grass S48 or S88 stimulator, delivering single square wave pulses at selected frequencies. The train duration was 5 s, the pulse duration 0.8 ms, and the stimulation interval 2 min. The polarity of the electrodes was shifted after each pulse by means of a polarity changing unit.
Each experiment was started by exposing the preparations to a high K^+ (124 mM) Krebs solution until two reproducible contractions are obtained. Then the following experiments were carried out:
a) Electrical stimulation of nerves was performed and frequency-response relations obtained, in the presence and absence of atropine.
b) Concentration-response curves were constructed for carbachol and ATP […]

[3] = tested on: rats with CYP-induced cystitis; experiment: cyclophosphamide (CYP) induced chronic cystitis in rats: conscious cystometry; format: in vivo, Wistar rats; conditions: 30 and 75 ug/kg, control v Comp A
hBC [4] = experiment: DNA fragmentation / apoptotic index in hBC by in situ end labelling (ISEL); conditions: Compound A 10 nM, alone and in the presence of KGF (10 ng/ml) or testosterone (10 nM); FIG. 7

## C=C1/C(=C\C=C2/CCC[C@]3(C)C([C@@H](C)C/C=C/C(O)(CC)CC)=CC[C@@H]23)C[C@@H](O)C[C@@H]1F [Compound A, 1-alpha-fluoro-25-hydroxy-16,23E-diene-26,27-bishomo-20-epi-cholecalciferol]
Human bladder cells
  IC50: 6.31 pM
[1]
  MTD: 0.1 mg/kg
hBC [2]
  hBC proliferation stimulated by the androgen DHT: inhibits
bcl-2
  bcl-2 expression (percentage of bcl-2 stained cells): significantly inhibits
vimentin
  vimentin protein expression (Western blot): failed to affect
Bladder strips
  response to carbachol of bladder strips: beneficial effect
Bladder strips; electrical field stimulation, FIG. 21
  response to EFS of bladder strips: beneficial effect
Bladder strips; strips from treated rats, high K+ (124 mM)
  K response of bladder strips: beneficial effect
[3]; FIG. 23
  bladder capacity: increase
[3]; FIG. 24
  non-voiding bladder contractions: decrease
hBC [4]
  apoptotic index: significantly increases
